# Laboratory results: US20040063662A1, “Selenophene anti-tumor agents” (priority 1996, published 2004)
# Tests used:
# [1] = system: MOLT-4; experiment: NCI human tumor cell panel: MOLT-4 (Leukemia); type: cell-based
# [2] = system: RPMI-8226; experiment: NCI human tumor cell panel: RPMI-8226 (Leukemia); type: cell-based
# [3] = system: A549/ATCC; experiment: NCI human tumor cell panel: A549/ATCC (Non-Small Cell Lung Cancer); type: cell-based
# [4] = system: EKVX; experiment: NCI human tumor cell panel: EKVX (Non-Small Cell Lung Cancer); type: cell-based
# [5] = system: NCI-H23; experiment: NCI human tumor cell panel: NCI-H23 (Non-Small Cell Lung Cancer); type: cell-based
# [6] = system: NCI-H322M; experiment: cells; type: cell-based; conditions: Homo sapiens
# [7] = system: NCI-H460; experiment: NCI human tumor cell panel: NCI-H460 (Non-Small Cell Lung Cancer); type: cell-based
# [8] = system: HCT-116; experiment: NCI human tumor cell panel: HCT-116 (Colon Cancer); type: cell-based
# [9] = system: HT29; experiment: NCI human tumor cell panel: HT29 (Colon Cancer); type: cell-based
# [10] = system: SW-620; experiment: NCI human tumor cell panel: SW-620 (Colon Cancer); type: cell-based
# [11] = system: SF-295; experiment: NCI human tumor cell panel: SF-295 (CNS Cancer); type: cell-based
# [12] = system: SF-539; experiment: NCI human tumor cell panel: SF-539 (CNS Cancer); type: cell-based
# [13] = system: SNB-75; experiment: NCI human tumor cell panel: SNB-75 (CNS Cancer); type: cell-based
# [14] = system: U251; experiment: NCI human tumor cell panel: U251 (CNS Cancer); type: cell-based
# [15] = system: LOX IMVI; experiment: NCI human tumor cell panel: LOX IMVI (Melanoma); type: cell-based
# [16] = system: M14; experiment: NCI human tumor cell panel: M14 (Melanoma); type: cell-based
# [17] = system: SK-MEL-2; experiment: NCI human tumor cell panel: SK-MEL-2 (Melanoma); type: cell-based
# [18] = system: SK-MEL-28; experiment: NCI human tumor cell panel: SK-MEL-28 (Melanoma); type: cell-based
# [19] = system: SK-MEL-5; experiment: NCI human tumor cell panel: SK-MEL-5 (Melanoma); type: cell-based
# [20] = system: IGROV1; experiment: NCI human tumor cell panel: IGROV1 (Ovarian Cancer); type: cell-based
# [21] = system: OVCAR-3; experiment: NCI human tumor cell panel: OVCAR-3 (Ovarian Cancer); type: cell-based
# [22] = system: OVCAR-8; experiment: NCI human tumor cell panel: OVCAR-8 (Ovarian Cancer); type: cell-based
# [23] = system: 786-0; experiment: NCI human tumor cell panel: 786-0 (Renal Cancer); type: cell-based
# [24] = system: A498; experiment: NCI human tumor cell panel: A498 (Renal Cancer); type: cell-based
# [25] = system: ACHN; experiment: NCI human tumor cell panel: ACHN (Renal Cancer); type: cell-based
# [26] = system: TK-10; experiment: NCI human tumor cell panel: TK-10 (Renal Cancer); type: cell-based
# [27] = system: UO-31; experiment: NCI human tumor cell panel: UO-31 (Renal Cancer); type: cell-based
# [28] = system: MCF7/ADR-RES; experiment: NCI human tumor cell panel: MCF7/ADR-RES (Breast Cancer); type: cell-based
# [29] = system: MDA-MB-435; experiment: NCI human tumor cell panel: MDA-MB-435 (Breast Cancer); type: cell-based; conditions: MDA-MB-435, read-out: Log10 GI50 (converted)
# [30] = system: MDA-N; experiment: NCI human tumor cell panel: MDA-N (Breast Cancer); type: cell-based
# [31] = system: BT-549; experiment: NCI human tumor cell panel: BT-549 (Breast Cancer); type: cell-based
# [32] = system: NCI-H522; experiment: NCI human tumor cell panel: NCI-H522 (Non-Small Cell Lung Cancer)
# [33] = read-out: Log10 GI50 (converted)
# [34] = read-out: Log10 TGI (converted)
smiles,measurement,setting,value
OCc1ccc(-c2ccc(-c3ccc(CO)[se]3)s2)[se]1 [compound 676632],GI50,"[1]; MOLT-4, read-out: Log10 GI50 (converted)",> 100 µM
same,IC (TGI),"[1]; MOLT-4, read-out: Log10 TGI (converted)",> 100 µM
same,GI50,"[2]; RPMI-8226, read-out: Log10 GI50 (converted)",> 100 µM
same,IC (TGI),"[2]; RPMI-8226, read-out: Log10 TGI",> 100 µM
same,GI50,[3]; [33],2.63 µM
same,IC (TGI),[3]; [34],> 100 µM
same,GI50,[4]; [33],50.1 µM
same,IC (TGI),[4]; [34],> 100 µM
same,GI50,"[5]; NCI-H23, read-out: Log10 GI50 (converted)",> 100 µM
same,IC (TGI),"[5]; NCI-H23, read-out: Log10 TGI (converted)",> 100 µM
same,GI50,[6]; [33],> 100 µM
same,IC (TGI),[6]; [34],> 100 µM
same,GI50,"[7]; NCI-H460, read-out: Log10 GI50 (converted)",0.0468 µM
same,IC (TGI),"[7]; NCI-H460, read-out: Log10 TGI (converted)",> 100 µM
same,GI50,"[8]; HCT-116, read-out: Log10 GI50 (converted)",> 100 µM
same,IC (TGI),"[8]; HCT-116, read-out: Log10 TGI (converted)",> 100 µM
same,GI50,"[9]; HT-29, HT29, read-out: Log10 GI50 (converted)",> 100 µM
same,IC (TGI),"[9]; HT-29, HT29, read-out: Log10 TGI (converted)",> 100 µM
same,GI50,"[10]; SW-620, read-out: Log10 GI50 (converted)",> 100 µM
same,IC (TGI),"[10]; SW-620, read-out: Log10 TGI (converted)",> 100 µM
same,GI50,"[11]; SF-295, read-out: Log10 GI50 (converted)",> 100 µM
same,IC (TGI),"[11]; SF-295, read-out: Log10 TGI (converted)",> 100 µM
same,GI50,"[12]; SF-539, read-out: Log10 GI50 (converted)",> 100 µM
same,IC (TGI),"[12]; SF-539, read-out: Log10 TGI (converted)",> 100 µM
same,GI50,"[13]; SNB-75, read-out: Log10 GI50 (converted)",> 100 µM
same,IC (TGI),"[13]; SNB-75, read-out: Log10 TGI (converted)",> 100 µM
same,GI50,"[14]; U-251, U251, read-out: Log10 GI50 (converted)",0.0355 µM
same,IC (TGI),"[14]; U-251, U251, read-out: Log10 TGI (converted)",12 µM
same,GI50,[15]; [33],> 100 µM
same,IC (TGI),[15]; [34],< 100 µM
same,GI50,"[16]; M14, read-out: Log10 GI50 (converted)",> 100 µM
same,IC (TGI),"[16]; M14, read-out: Log10 TGI (converted)",> 100 µM
same,GI50,"[17]; SK-MEL-2, read-out: Log10 GI50 (converted)",> 100 µM
same,IC (TGI),"[17]; SK-MEL-2, read-out: Log10 TGI (converted)",> 100 µM
same,GI50,"[18]; SK-MEL-28, read-out: Log10 GI50 (converted)",> 100 µM
same,IC (TGI),"[18]; SK-MEL-28, read-out: Log10 TGI (converted)",> 100 µM
same,GI50,"[19]; SK-MEL-5, read-out: Log10 GI50 (converted)",63.1 µM
same,IC (TGI),"[19]; SK-MEL-5, read-out: Log10 TGI (converted)",> 100 µM
same,GI50,"[20]; IGROV-1, IGROV1, read-out: Log10 GI50 (converted)",0.0324 µM
same,IC (TGI),"[20]; IGROV-1, IGROV1, read-out: Log10 TGI (converted)",0.275 µM
same,GI50,"[21]; OVCAR-3, read-out: Log10 GI50 (converted)",0.0195 µM
same,IC (TGI),"[21]; OVCAR-3, read-out: Log10 TGI (converted)",0.0676 µM
same,GI50,"[22]; OVCAR-8, read-out: Log10 GI50 (converted)",> 100 µM
same,IC (TGI),"[22]; OVCAR-8, read-out: Log10 TGI (converted)",> 100 µM
same,GI50,"[23]; 786-0, read-out: Log10 GI50 (converted)",> 100 µM
same,IC (TGI),"[23]; 786-0, read-out: Log10 TGI (converted)",> 100 µM
same,GI50,"[24]; A498, read-out: Log10 GI50 (converted)",0.0186 µM
same,IC (TGI),"[24]; A498, read-out: Log10 TGI (converted)",0.0427 µM
same,GI50,[25]; [33],> 100 µM
same,IC (TGI),[25]; [34],> 100 µM
same,GI50,"[26]; TK-10, read-out: Log10 GI50 (converted)",0.0282 µM
same,IC (TGI),"[26]; TK-10, read-out: Log10 TGI (converted)",0.0813 µM
same,GI50,"[27]; UO-31, read-out: Log10 GI50 (converted)",> 100 µM
same,IC (TGI),"[27]; UO-31, read-out: Log10 TGI (converted)",> 100 µM
same,GI50,[28]; [33],> 100 µM
same,IC (TGI),[28]; [34],> 100 µM
same,GI50,[29],> 100 µM
same,GI50,[30]; [33],> 100 µM
same,IC (TGI),[30]; [34],> 100 µM
same,GI50,"[31]; BT-549, read-out: Log10 GI50 (converted)",0.195 µM
same,IC (TGI),"[31]; BT-549, read-out: Log10 TGI (converted)",> 100 µM
same,GI50,"[32]; NCI-H522, read-out: Log10 GI50 (converted)",> 100 µM
same,IC (TGI),"[32]; NCI-H522, read-out: Log10 TGI",> 100 µM
